Drawing on patent publication US6348468B1, “Pyridazine compounds and compositions containing the same” (Kowa Co., Ltd., priority 1997, dated 2002), this text covers IC50 and melting point for 29 molecules.

The subject of series [1] is Interleukin-1β (IL-1β) Production. The series can be described thus: Inhibitory activity against interleukin-1β production (LPS-stimulated HL-60 cells, ELISA). It counts as cell-based. The note with it: Homo sapiens, 72 h, lipopolysaccharide 10 μg/ml, culturing for 3 days. Here is the method:
HL-60 cells were cultured for 4 days until confluence on RPMI 1640 medium with 10% fetal bovine serum (FBS) added thereto. The HL-60 cells were centrifuged. The supernatant was discarded, and the cells were then suspended at 1×10^6 cells/ml on RPMI 1640 medium with 3% FBS, and lipopolysaccharide was added to give a final concentration of 10 μg/ml. The culture was inoculated at 1 ml/well to a 24-well plate. A test sample was added at 1 μl/well, followed by culturing for 3 days. Three days later, the amount of interleukin-1β in each of the cultures was measured by ELISA. Its IC50 value was determined by a comparison in yield with a control to which no test sample was added.
In general terms: In an ELISA, binding on a coated surface is turned into a signal by an enzyme label.

In series [1], `COc1ccc(-c2cc(=O)n(CC=Cc3ccc(C)cc3)nc2-c2ccc(OC)cc2)cc1` [Example 24, 5,6-bis(4-methoxyphenyl)-2-(4-methylcinnamyl)-2H-pyridazin-3-one] displayed an IC50 of 200 nM.
In series [1], `COc1ccc(-c2cc(=O)n(CCCc3ccc(C)cc3)nc2-c2ccc(OC)cc2)cc1` [Example 25, 5,6-bis(4-methoxyphenyl)-2-[3-(4-methylphenyl)propyl]-2H-pyridazin-3-one] gave an IC50 of 180 nM.
In series [1], `COc1ccc(-c2cc(=O)n(Cc3ccc(F)cc3)nc2-c2ccc(OC)cc2)cc1` [Example 26, 5,6-bis(4-methoxyphenyl)-2-(4-fluorobenzyl)-2H-pyridazin-3-one] came in with an IC50 of 150 nM. The IC50 values of the last two molecules are within 1.5-fold of each other.
The same measure, in the same setting: with `COc1ccc(-c2cc(=O)n(Cc3ccc(F)cc3F)nc2-c2ccc(OC)cc2)cc1` [Example 27, 5,6-bis(4-methoxyphenyl)-2-(2,4-difluorobenzyl)-2H-pyridazin-3-one] the figure was 180 nM; with `COc1ccc(-c2cc(=O)n(Cc3ccc(OC)c(F)c3)nc2-c2ccc(OC)cc2)cc1` [Example 28, 5,6-bis(4-methoxyphenyl)-2-(3-fluoro-4-methoxybenzyl)-2H-pyridazin-3-one], 290 nM.
`COc1ccc(-c2cc(=O)n(CC=Cc3ccc(F)cc3)nc2-c2ccc(OC)cc2)cc1` [Example 30, 5,6-bis(4-methoxyphenyl)-2-(4-fluorocinnamyl)-2H-pyridazin-3-one] displayed an IC50 in series [1] of 170 nM.
The molecule `COc1ccc(-c2cc(=O)n(CC=Cc3ccc(F)cc3F)nc2-c2ccc(OC)cc2)cc1` [Example 31, 5,6-bis(4-methoxyphenyl)-2-(2,4-difluorocinnamyl)-2H-pyridazin-3-one] came in with a half-maximal inhibitory concentration (IC50) in series [1] of 95 nM.
Still for that read-out and setting: with `COc1ccc(-c2cc(=O)n(Cc3ccc(Cl)c(Cl)c3)nc2-c2ccc(OC)cc2)cc1` [Example 35, 5,6-bis(4-methoxyphenyl)-2-(3,4-dichlorobenzyl)-2H-pyridazin-3-one] the figure was 210 nM.
Regarding `COc1ccc(-c2cc(=O)n(CC=Cc3ccc(Cl)cc3Cl)nc2-c2ccc(OC)cc2)cc1` [Example 40, 5,6-bis(4-methoxyphenyl)-2-(2,4-dichlorocinnamyl)-2H-pyridazin-3-one], the IC50 in series [1] is 270 nM.
In turn, `COc1ccc(-c2cc(=O)n(Cc3cccnc3)nc2-c2ccc(OC)cc2)cc1` [Example 44, 5,6-bis(4-methoxyphenyl)-2-(3-pyridylmethyl)-2H-pyridazin-3-one] yielded a melting point of 167.4 to 168.4 °C. For the same molecule, inhibition in series [1] was half-maximal at 430 nM (IC50).
As for `CSc1ccc(-c2nn(Cc3cccnc3)c(=O)cc2-c2ccc(Cl)cc2)cc1` [Example 55, 5-(4-chlorophenyl)-6-[4-(methylthio)phenyl]-2-(3-pyridylmethyl)-2H-pyridazin-3-one], the IC50 in series [1] turned out to be 250 nM.
For `CSc1ccc(-c2nn(Cc3ccccc3)c(=O)cc2-c2ccc(F)cc2)cc1` [Example 61, 5-(4-fluorophenyl)-6-[4-(methylthio)phenyl]-2-benzyl-2H-pyridazin-3-one], the melting point lay in the range of 140.6 to 140.7 °C. Besides, in series [1], the IC50 turned out to be 210 nM.
The like results for `CSc1ccc(-c2nn(Cc3ccc(Cl)cc3Cl)c(=O)cc2-c2ccc(F)cc2)cc1` [Example 65, 5-(4-fluorophenyl)-6-[4-(methylthio)phenyl]-2-(2,4-dichlorobenzyl)-2H-pyridazin-3-one] were, in that order, 139.3 to 139.5 °C and 390 nM.
Consider `COc1ccc(-c2nn(Cc3ccc(Cl)cc3)c(=O)cc2-c2ccncc2)cc1` [Example 78, 2-(4-chlorobenzyl)-6-(4-methoxyphenyl)-5-(4-pyridyl)-2H-pyridazin-3-one], for which, in series [1], the IC50 turned out to be 390 nM.
With `COc1ccc(-c2cc(=S)n(Cc3ccccc3)nc2-c2ccc(OC)cc2)cc1` [Example 123, 5,6-bis(4-methoxyphenyl)-2-benzyl-2H-pyridazine-3-thione], the melting point was 134.7 to 148.6 °C. The same molecule gave an IC50 in series [1] of 190 nM.
In turn, `COc1ccc(-c2cc(=S)n(Cc3ccc(F)cc3F)nc2-c2ccc(OC)cc2)cc1` [Example 126, 5,6-bis(4-methoxyphenyl)-2-(2,4-difluorobenzyl)-2H-pyridazine-3-thione] registered an IC50 in series [1] of 150 nM.
On to `COc1ccc(-c2cc(=S)n(Cc3cccnc3)nc2-c2ccc(OC)cc2)cc1` [Example 128, 5,6-bis(4-methoxyphenyl)-2-(3-pyridylmethyl)-2H-pyridazine-3-thione], for which the IC50 in series [1] turned out to be 310 nM.
Regarding `CSc1ccc(-c2nn(Cc3ccc(Cl)cc3Cl)c(=S)cc2-c2ccc(Cl)cc2)cc1` [Example 134, 5-(4-chlorophenyl)-2-(2,4-dichlorobenzyl)-6-[4-(methylthio)phenyl]-2H-pyridazine-3-thione], the melting point is 183.2 to 183.4 °C. The IC50 in series [1] came out at 200 nM.
As for `CSc1ccc(-c2nn(Cc3cccnc3)c(=S)cc2-c2ccc(Cl)cc2)cc1` [Example 135, 5-(4-chlorophenyl)-6-[4-(methylthio)phenyl]-2-(3-pyridylmethyl)-2H-pyridazine-3-thione], 390 nM corresponded to half-maximal inhibition in series [1] (IC50).
Molecule `CSc1ccc(-c2nn(CC3CC3)c(=S)cc2-c2ccc(F)cc2)cc1` [Example 137, 2-cyclopropylmethyl-5-(4-fluorophenyl)-6-[4-(methylthio)phenyl]-2H-pyridazine-3-thione] came in with a melting point of 135.7 to 135.8 °C. For the same molecule, the IC50 in series [1] came to 270 nM.
`COc1ccc(-c2nn(Cc3ccc(Cl)cc3)c(=S)cc2-c2ccncc2)cc1` [Example 142, 2-(4-chlorobenzyl)-6-(4-methoxyphenyl)-5-(4-pyridyl)-2H-pyridazine-3-thione] yielded a 50% inhibitory concentration (IC50) in series [1] of 180 nM.
In turn, `CCn1nc(-c2ccc(OC)c(F)c2)c(-c2ccc(OC)c(F)c2)cc1=O` [Example 160, 5,6-bis(3-fluoro-4-methoxyphenyl)-2-ethyl-2H-pyridazin-3-one] displayed a melting point of 177.8 to 178.5 °C. Half-maximal inhibition in series [1] (IC50) required 490 nM.
The molecule `COc1ccc(-c2cc(=O)n(C)nc2-c2ccc(OC)cc2)cc1` [Example 164, 5,6-bis(4-methoxyphenyl)-2-methyl-2H-pyridazin-3-one] showed an IC50 in series [1] of 1130 nM.
`COc1ccc(-c2cc(=O)n(C(C)C)nc2-c2ccc(OC)cc2)cc1` [Example 165, 5,6-bis(4-methoxyphenyl)-2-isopropyl-2H-pyridazin-3-one] yielded an IC50 in series [1] of 1320 nM.
Take `COc1ccc(-c2cc(=O)n(C3CC3)nc2-c2ccc(OC)cc2)cc1` [Example 168, 5,6-bis(4-methoxyphenyl)-2-cyclopropyl-2H-pyridazin-3-one]: half-maximal inhibition in series [1] (IC50) was put at 7980 nM.
On the same count and under the same terms, the value for `COc1ccc(-c2cc(=O)n(CC3CC3)nc2-c2ccc(OC)cc2)cc1` [Example 169, 5,6-bis(4-methoxyphenyl)-2-cyclopropylmethyl-2H-pyridazin-3-one] was 1800 nM; that for `COc1ccc(-c2cc(=S)n(CC3CC3)nc2-c2ccc(OC)cc2)cc1` [Example 170, 5,6-bis(4-methoxyphenyl)-2-cyclopropylmethyl-2H-pyridazine-3-thione] was 1190 nM.
Consider `COc1ccc(-c2cc(=O)n(C3CCCC3)nc2-c2ccc(OC)cc2)cc1` [Example 171, 5,6-bis(4-methoxyphenyl)-2-cyclopentyl-2H-pyridazin-3-one], for which the melting point fell in the range of 141.2 to 142.2 °C. This molecule also returned an IC50 in series [1] of 510 nM.
As to `COc1ccc(-c2cc(=O)n(CC3CCCC3)nc2-c2ccc(OC)cc2)cc1` [Example 172, 5,6-bis(4-methoxyphenyl)-2-cyclopentylmethyl-2H-pyridazin-3-one], in series [1], the IC50 stood at 110 nM.

For orientation: IC50 means the concentration needed to halve the response being measured. Low readings indicate higher potency, high ones lower potency. The melting point is the temperature of the solid-liquid transition.
